Experimental data as given in US20070270418A1, “Inhibitors of P38 and Methods of Using the Same” (priority 2003, published 2007).
pIC50: −log10 of the molar value. Like-named read-outs stand apart in the source and are kept apart here.

Legend:
[1] = system: collagen-induced arthritis in rats; experiment: In vivo established type II collagen arthritis study; set-up: species or system Female Lewis rats; settings: Rattus norvegicus, po, oral gavage bid, days 1-7 of arthritis
Protocol: Compounds are tested in the collagen-induced model of arthritis in rats. Female Lewis rats (0.16-0.2 kg) are injected subcutaneously at the base of the tail and two sites on the back on day 0 and 6 with 300 μl of Freund's Incomplete Adjuvant containing 2 mg/ml of Bovine Type II Collagen. On day 9 of the study, caliper measurements of both hind leg ankle joints are performed. This measurement is considered the normal, pre-disease measurement. When ankle swelling is clearly established in at least one hind paw (caliper measurement increase from 0.263 to 0.282 inches), rats are enrolled into the treatment phase of the study. This occurs on day 10 or 11 of the study and is considered to be day 1 of arthritis. Enrolled animals are randomized and administered vehicle control or compound (1, 3.3, 10, or 30 mg/kg, bid), unless otherwise indicated, or dexamethasone (0.0375 mg/kg, bid) via oral gavage on days 1-7 of arthritis (treatment days). Ankle diameters are measured on each day of treatment. Mean increases in ankle diameter for 7 lead compounds are shown below in FIGS. 3-9.
Following sacrifice on day 7, both hind paws are removed from each animal and weighed. Knees and ankles from all animals in all groups are preserved, decalcified in 5% formic acid and trimmed into two approximately equal longitudinal (ankles) or frontal (knees) halves, dehydrated, cleared, infiltrated, and embedded in paraffin. Blocks are sectioned and stained with Toluidine Blue.
Tissues are examined microscopically and scored for knee and ankle inflammation (cellular infiltration), pannus formation and infiltration, cartilage damage (loss of Toluidine staining and collagen disruption) and bone resorption. Scoring is on a scale from 0-5, where a score of 0 is normal and a score of 5 indicates severe damage or evidence of disease or both.

[2] = system: TNFα release from THP-1 cells; experiment: TNFα release from LPS-stimulated THP-1 cells; type: cell-based; settings: Homo sapiens, THP-1, 18 h, LPS 10 μg/ml, 18 hours; read-out: TNFα (THP-1) IC50
How it was run: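 THP-1 cells (10^6 cells/ml on resuspension) preincubated with compound 30 min at 37°C, 5% CO2, final DMSO ≤0.5%, then stimulated with 10 μg/ml LPS for 18 h (TNFα). Supernatants collected for TNFα analysis.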

[3] = target: T1, Syk (Homo sapiens, UniProt P43405); experiment: Broad selectivity panel, 32P incorporation; type: biochemical; settings: 40 μM ATP, read-out: Percent inhibition Syk; for inhibition at 0.1 µM: 0.1 μM compound; for inhibition at 1 µM: 1 μM compound
T1 construct: purchased Upstate (Charlottesville, Va.)
Protocol: (§1) Various compounds of the present invention are screened against a panel of 24 additional kinases (Upstate, Charlottesville, Va.). Compounds are tested 0.1 μM and 1 μM in reactions containing 40 μM ATP. Incorporation of radiolabeled phosphate (^32P) into each kinase substrate is measured in the presence and absence of test compound.

[4] = target: T2, Lck (Homo sapiens, UniProt P06239); experiment: Broad selectivity panel, 32P incorporation; type: biochemical; settings: 40 μM ATP, read-out: Percent inhibition Lck; for inhibition at 0.1 µM: 0.1 μM compound; for inhibition at 1 µM: 1 μM compound
T2 construct: purchased Upstate (Charlottesville, Va.)
T2 sequence (P06239 whole entry, species assumed): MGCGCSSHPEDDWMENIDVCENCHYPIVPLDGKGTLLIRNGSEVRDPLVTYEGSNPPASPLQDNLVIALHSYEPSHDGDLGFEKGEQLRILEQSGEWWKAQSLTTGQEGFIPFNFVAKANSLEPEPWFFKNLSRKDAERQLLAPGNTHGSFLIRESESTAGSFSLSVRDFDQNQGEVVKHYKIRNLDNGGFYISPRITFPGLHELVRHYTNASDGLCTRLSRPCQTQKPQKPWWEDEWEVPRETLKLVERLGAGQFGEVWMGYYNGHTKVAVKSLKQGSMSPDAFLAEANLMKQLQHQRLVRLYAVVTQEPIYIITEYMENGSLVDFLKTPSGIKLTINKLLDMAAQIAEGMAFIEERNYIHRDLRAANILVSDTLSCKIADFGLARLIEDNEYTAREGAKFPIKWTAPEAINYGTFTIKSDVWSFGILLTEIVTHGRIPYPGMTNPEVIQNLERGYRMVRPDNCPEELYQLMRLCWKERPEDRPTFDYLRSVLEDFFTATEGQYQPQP
Protocol: as §1

[5] = target: T3, InsR (Homo sapiens, UniProt P06213); experiment: Broad selectivity panel, 32P incorporation; type: biochemical; settings: 40 μM ATP, read-out: Percent inhibition InsR; for inhibition at 0.1 µM: 0.1 μM compound; for inhibition at 1 µM: 1 μM compound
T3 construct: purchased Upstate (Charlottesville, Va.)
T3 sequence (P06213 28-1382, species assumed): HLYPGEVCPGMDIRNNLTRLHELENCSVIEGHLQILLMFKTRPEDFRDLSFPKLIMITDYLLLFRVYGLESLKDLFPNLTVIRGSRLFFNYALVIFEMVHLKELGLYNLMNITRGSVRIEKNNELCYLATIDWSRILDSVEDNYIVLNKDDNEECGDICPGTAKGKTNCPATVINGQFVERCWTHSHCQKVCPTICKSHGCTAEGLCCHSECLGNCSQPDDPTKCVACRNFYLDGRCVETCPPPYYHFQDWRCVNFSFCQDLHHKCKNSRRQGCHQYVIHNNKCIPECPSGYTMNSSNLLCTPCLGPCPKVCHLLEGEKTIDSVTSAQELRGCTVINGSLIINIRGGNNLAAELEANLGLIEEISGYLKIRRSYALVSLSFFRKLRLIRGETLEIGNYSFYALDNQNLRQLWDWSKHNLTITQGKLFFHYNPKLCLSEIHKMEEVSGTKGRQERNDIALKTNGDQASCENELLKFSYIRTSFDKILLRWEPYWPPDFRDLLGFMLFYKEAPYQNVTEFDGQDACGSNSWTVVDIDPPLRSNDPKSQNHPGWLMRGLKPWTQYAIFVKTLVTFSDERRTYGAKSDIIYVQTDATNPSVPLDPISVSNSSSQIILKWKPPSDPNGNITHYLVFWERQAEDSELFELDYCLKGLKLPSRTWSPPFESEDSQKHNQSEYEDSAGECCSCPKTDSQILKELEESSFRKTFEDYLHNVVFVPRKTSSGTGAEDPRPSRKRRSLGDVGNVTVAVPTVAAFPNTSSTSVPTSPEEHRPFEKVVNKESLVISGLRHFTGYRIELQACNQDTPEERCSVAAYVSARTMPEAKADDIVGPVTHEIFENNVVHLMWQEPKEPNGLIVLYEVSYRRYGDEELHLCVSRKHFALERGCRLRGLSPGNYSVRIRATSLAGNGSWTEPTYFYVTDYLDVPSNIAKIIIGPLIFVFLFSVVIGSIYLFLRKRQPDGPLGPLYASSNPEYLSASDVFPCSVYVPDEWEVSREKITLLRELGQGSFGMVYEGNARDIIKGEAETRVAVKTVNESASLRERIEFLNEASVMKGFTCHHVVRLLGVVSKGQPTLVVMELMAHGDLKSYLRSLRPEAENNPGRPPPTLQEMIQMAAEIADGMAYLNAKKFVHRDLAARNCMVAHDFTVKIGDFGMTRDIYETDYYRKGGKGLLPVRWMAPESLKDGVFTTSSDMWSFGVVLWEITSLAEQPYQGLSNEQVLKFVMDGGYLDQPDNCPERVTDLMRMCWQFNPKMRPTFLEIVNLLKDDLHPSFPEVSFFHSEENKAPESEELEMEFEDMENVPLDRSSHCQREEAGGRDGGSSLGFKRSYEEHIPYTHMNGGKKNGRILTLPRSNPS
Protocol: as §1

[6] = target: T4, MAPK2 (Homo sapiens, UniProt P28482); experiment: Broad selectivity panel, 32P incorporation; type: biochemical; settings: 40 μM ATP, read-out: Percent inhibition MAPK2; for inhibition at 0.1 µM: 0.1 μM compound; for inhibition at 1 µM: 1 μM compound
T4 construct: purchased Upstate (Charlottesville, Va.)
T4 sequence (P28482 whole entry): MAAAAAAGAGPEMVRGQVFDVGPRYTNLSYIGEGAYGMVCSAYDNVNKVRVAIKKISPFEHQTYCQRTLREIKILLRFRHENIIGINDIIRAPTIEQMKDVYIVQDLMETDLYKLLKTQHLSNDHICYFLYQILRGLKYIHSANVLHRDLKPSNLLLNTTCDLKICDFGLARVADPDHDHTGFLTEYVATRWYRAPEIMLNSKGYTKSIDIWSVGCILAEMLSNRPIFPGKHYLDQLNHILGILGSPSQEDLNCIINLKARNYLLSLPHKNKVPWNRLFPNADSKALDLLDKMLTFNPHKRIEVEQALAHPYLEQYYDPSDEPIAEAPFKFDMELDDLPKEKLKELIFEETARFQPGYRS
Protocol: as §1, with “compound. Results are reported as the percent decrease in the amount of ^32P incorporated into the substrate in the presence of compound, compared to buffer control.” for “compound.”

[7] = system: ROCK-II; experiment: Broad selectivity panel, 32P incorporation; type: biochemical; settings: 40 μM ATP
Protocol: as §1, with “compound. Results are reported as the percent decrease in the amount of ^32P incorporated into the substrate in the presence of compound, compared to buffer control.” for “compound.”

[8] = target: T5, MEK1 (Homo sapiens, UniProt Q02750); experiment: Broad selectivity panel, 32P incorporation; type: biochemical; settings: 40 μM ATP, read-out: Percent inhibition MEK1; for inhibition at 0.1 µM: 0.1 μM compound; for inhibition at 1 µM: 1 μM compound
T5 construct: purchased Upstate (Charlottesville, Va.)
T5 sequence (Q02750 whole entry, species assumed): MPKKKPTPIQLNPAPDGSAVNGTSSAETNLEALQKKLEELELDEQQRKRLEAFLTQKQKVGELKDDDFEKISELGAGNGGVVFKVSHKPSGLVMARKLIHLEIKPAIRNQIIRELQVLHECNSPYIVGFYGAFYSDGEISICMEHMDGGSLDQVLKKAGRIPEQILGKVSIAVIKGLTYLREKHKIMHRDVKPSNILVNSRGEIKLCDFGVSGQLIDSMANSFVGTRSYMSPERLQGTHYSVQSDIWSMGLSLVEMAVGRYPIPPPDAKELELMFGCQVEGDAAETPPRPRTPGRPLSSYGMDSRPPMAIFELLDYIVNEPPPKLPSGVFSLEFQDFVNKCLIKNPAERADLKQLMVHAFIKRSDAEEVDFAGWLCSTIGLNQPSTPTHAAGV
Protocol: as §1, with “compound. Results are reported as the percent decrease in the amount of ^32P incorporated into the substrate in the presence of compound, compared to buffer control.” for “compound.”

[9] = target: T6, CK2 (Homo sapiens, UniProt P68400); experiment: Broad selectivity panel, 32P incorporation; type: biochemical; settings: 40 μM ATP, read-out: Percent inhibition CK2; for inhibition at 0.1 µM: 0.1 μM compound; for inhibition at 1 µM: 1 μM compound
T6 construct: purchased Upstate (Charlottesville, Va.)
T6 sequence (P68400 whole entry): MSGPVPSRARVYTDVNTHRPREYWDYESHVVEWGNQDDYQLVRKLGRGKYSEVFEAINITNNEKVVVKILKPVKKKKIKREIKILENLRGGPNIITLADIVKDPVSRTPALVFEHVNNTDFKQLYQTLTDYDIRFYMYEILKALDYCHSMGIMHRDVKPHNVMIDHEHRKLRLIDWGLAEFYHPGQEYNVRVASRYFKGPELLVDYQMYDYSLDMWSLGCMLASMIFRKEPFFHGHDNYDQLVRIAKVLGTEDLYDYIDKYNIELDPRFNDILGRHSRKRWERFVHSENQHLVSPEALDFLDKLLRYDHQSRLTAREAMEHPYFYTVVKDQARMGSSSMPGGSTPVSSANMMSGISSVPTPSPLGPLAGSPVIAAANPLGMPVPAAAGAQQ
T6 sequence (P67870 whole entry partner): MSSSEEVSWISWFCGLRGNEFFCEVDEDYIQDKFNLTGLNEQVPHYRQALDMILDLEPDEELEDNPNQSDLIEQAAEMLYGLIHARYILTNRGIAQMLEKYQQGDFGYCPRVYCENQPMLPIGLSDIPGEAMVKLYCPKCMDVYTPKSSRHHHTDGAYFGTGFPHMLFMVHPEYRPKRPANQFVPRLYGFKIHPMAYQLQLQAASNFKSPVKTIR
Protocol: as §1, with “compound. Results are reported as the percent decrease in the amount of ^32P incorporated into the substrate in the presence of compound, compared to buffer control.” for “compound.”

[10] = target: T7, JNK3-His (Homo sapiens, UniProt P53779); experiment: Broad selectivity panel, 32P incorporation; type: biochemical; settings: 40 μM ATP, read-out: Percent inhibition JNK3-His; for inhibition at 0.1 µM: 0.1 μM compound; for inhibition at 1 µM: 1 μM compound
T7 construct: His; purchased Upstate (Charlottesville, Va.)
T7 sequence (P53779 whole entry): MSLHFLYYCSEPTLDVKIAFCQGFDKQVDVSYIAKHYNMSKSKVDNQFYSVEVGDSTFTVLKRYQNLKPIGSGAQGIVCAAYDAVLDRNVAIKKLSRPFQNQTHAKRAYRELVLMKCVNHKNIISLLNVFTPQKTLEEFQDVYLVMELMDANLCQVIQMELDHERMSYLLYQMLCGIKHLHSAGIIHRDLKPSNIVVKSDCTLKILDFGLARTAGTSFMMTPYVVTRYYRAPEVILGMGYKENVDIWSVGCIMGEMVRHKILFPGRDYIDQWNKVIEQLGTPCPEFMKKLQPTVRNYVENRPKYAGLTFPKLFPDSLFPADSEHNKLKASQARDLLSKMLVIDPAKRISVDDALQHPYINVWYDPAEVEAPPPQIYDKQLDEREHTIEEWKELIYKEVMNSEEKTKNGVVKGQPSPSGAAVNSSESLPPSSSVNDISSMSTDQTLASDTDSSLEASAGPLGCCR
Protocol: as §1, with “compound. Results are reported as the percent decrease in the amount of ^32P incorporated into the substrate in the presence of compound, compared to buffer control.” for “compound.”

[11] = first column so headed (c3), read-out: ED50 summed ankle histology
[12] = second column so headed (c4), read-out: ED50 summed ankle histology

Structure (SMILES)	ED50 [1, 11] [mg/kg]	ED50 ([1]; read-out: ED50 ankle diameter) [mg/kg]	ED50 ([1]; read-out: ED50 paw weights) [mg/kg]	ED50 [1, 12] [mg/kg]	pIC50 [2]	inhibition at 0.1 µM [3] [%]	inhibition at 1 µM [3] [%]	inhibition at 0.1 µM [4] [%]	inhibition at 1 µM [4] [%]	inhibition at 0.1 µM [5] [%]	inhibition at 0.1 µM [6] [%]	inhibition at 1 µM [6] [%]	Percent inhibition ROCK-II ([7]; 0.1 μM compound)	Percent inhibition ROCK-II ([7]; 1 μM compound)	inhibition at 0.1 µM [8] [%]	inhibition at 1 µM [8] [%]	inhibition at 0.1 µM [9] [%]	inhibition at 1 µM [9] [%]	inhibition at 0.1 µM [10] [%]	inhibition at 1 µM [10] [%]	further results
CS(=O)(=O)N1CCC(Nc2nccc(-c3c(-c4ccc(F)cc4)nc4occn34)n2)CC1 [CCLXXIX]	4.29	2.09	2.57	0.72	8.29	3	10	2	-3	9	14	43	10	12	7	11	8	4	97	101	inhibition at 1 µM [5]: 2%
CC(=O)N1CCC(Nc2nccc(-c3c(-c4ccc(F)cc4)nc4occn34)n2)CC1 [CCLXXVIII]	3.09	2.04	1.55	1.24	8.03			5	31	-28	18	42	−6	6	6	13	5	10	78	100	inhibition at 1 µM [5]: -4%
CN1[C@@H]2CC[C@H]1C[C@@H](Nc1nccc(-c3c(-c4ccc(F)cc4)nc4occn34)n1)C2 [CCLXXXI]	0.93	0.98	0.94	0.2	8.44	17	33	26	35	-7	10	23	10	9	-3	7	6	16	19	75	inhibition at 1 µM [5]: 14%
Fc1ccc(-c2nc3occn3c2-c2ccnc(NC3CCNCC3)n2)cc1 [CCLXXX]	7.6	5.43	3.51	1.04	8.10	5	40	-3	27		-9	9	8	10	9	13	10	32	39	84	
CN(C)CC(C)(C)CNc1nccc(-c2c(-c3ccc(F)cc3)nc3occn23)n1 [CXIX]	2.64	2.3	3.75	1.19	7.48	35	33			8	10	7	16	−8	-1	2	9	3	19	56	inhibition at 1 µM [5]: 3%
Fc1ccc(-c2nc3occn3c2-c2ccnc(N[C@@H]3CN4CCC3CC4)n2)cc1 [LXXI]					7.72	-5	33	8	17	-25	-5	18	−7	10	2	6	3	12	-7	59	inhibition at 1 µM [5]: 12%
Fc1ccc(-c2nc3occn3c2-c2ccnc(NC3CN4CCC3CC4)n2)cc1 (stereo not shown) [LXXXIV]	2.6	1.9	2	0.6	8.03																
Fc1ccc(-c2nc3occn3c2-c2ccnc(N[C@H]3CN4CCC3CC4)n2)cc1 [LXXXVII]	2.07	1.29	1.88	0.42	8.73	17	23	-15	18	-8	-4	14	2	8	3	-1	4	4	19	61	inhibition at 1 µM [5]: 8%
